# Assay results published in publication PMC6001238, “Iterative Chemical Engineering of Vancomycin Leads to Novel Vancomycin Analogs With a High in Vitro Therapeutic Index” (Frontiers in Microbiology, 2018).
# Read-outs that look alike come from different tables or passages of the source.
# Tests used:
# E. faecalis VSE 1 = assay: MIC, broth microdilution, vancomycin-sensitive E. faecalis (VSE 1); assay type: cell-based, Enterococcus faecalis
# Summary of the method: (§1)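 MIC values come from broth microdilution run to CLSI susceptibility-testing standards. Ultrapure water and uninoculated broth served as controls. In one series, vancomycin at a final 10 μM was co-dosed with the analogue or comparator antibiotic.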
# E. faecalis VRE 6 = assay: MIC, broth microdilution, vancomycin-resistant E. faecalis VRE 6 (VanA); assay type: cell-based, Enterococcus faecalis
# Summary of the method: as §1
# E. faecalis VRE 53 = assay: MIC, broth microdilution, vancomycin-resistant E. faecalis VRE 53 (VanA); assay type: cell-based, Enterococcus faecalis
# Summary of the method: as §1
# E. faecalis VRE 29 = assay: MIC, broth microdilution, vancomycin-resistant E. faecalis VRE 29 (VanA); assay type: cell-based, Enterococcus faecalis
# Summary of the method: as §1
# E. faecalis VRE 37 = assay: MIC, broth microdilution, vancomycin-resistant E. faecalis VRE 37 (VanA); assay type: cell-based, Enterococcus faecalis
# Summary of the method: as §1
# [1] = test system: Murine leukemia (L1210) cells; assay: Cytostatic activity, L1210 cell proliferation; assay type: cell-based; conditions: Mus musculus, L1210, 48 h; mean ± SD of three experiments; highest concentration tested 250 µM; 2 days; read-out: Toxicity (IC50) L1210
# Summary of the method: (§2)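 Coulter counter cell counts after 37°C culture with compound; IC50 = concentration giving 50% growth inhibition vs negative control. Incubation: L1210 2 d, CEM 3 d, HeLa 4 d. Suspension density before mixing with an equal volume of dilution: 300,000–500,000 cells/mL.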
# [2] = test system: human T-lymphocyte (CEM) cells; assay: Cytostatic activity, CEM cell proliferation; assay type: cell-based; conditions: Homo sapiens, CCRF-CEM, 72 h; mean ± SD of three experiments; highest concentration tested 250 µM; 3 days; read-out: Toxicity (IC50) CEM
# Summary of the method: as §2
# [3] = test system: human cervix carcinoma (HeLa) cells; assay: Cytostatic activity, HeLa cell proliferation; assay type: cell-based; conditions: Homo sapiens, HeLa, 96 h; mean ± SD of three experiments; highest concentration tested 250 µM; 4 days; read-out: Toxicity (IC50) HeLa
# Summary of the method: as §2
# [4] = test system: L1210, CEM and HeLa cell lines; assay: Cytostatic activity, average or summary over L1210, CEM and HeLa; assay type: cell-based
# Summary of the method: as §2
# [5] = test system: S. aureus VSSA (ATCC 6538); assay: MIC, broth microdilution, vancomycin-sensitive S. aureus (VSSA/MSSA, ATCC 6538); assay type: cell-based, Staphylococcus aureus
# Summary of the method: as §1
# S. aureus VISA/HIP5827 = assay: MIC, broth microdilution, vancomycin-intermediate S. aureus VISA HIP5827; assay type: cell-based, Staphylococcus aureus
# Summary of the method: as §1
# S. aureus VRSA = assay: MIC, broth microdilution, vancomycin-resistant S. aureus (VRSA); assay type: cell-based, Staphylococcus aureus
# Summary of the method: as §1
# MRSA KS2 = assay: MIC, broth microdilution, MRSA KS2; assay type: cell-based, Staphylococcus aureus
# Summary of the method: as §1
# MRSA KS6 = assay: MIC, broth microdilution, MRSA KS6; assay type: cell-based, Staphylococcus aureus; conditions: Staphylococcus aureus MRSA KS6; read-out: MIC
# Summary of the method: as §1
# MRSA KS89 = assay: MIC, broth microdilution, MRSA KS89; assay type: cell-based, Staphylococcus aureus
# Summary of the method: as §1
# MRSA KS1 = assay: MIC, broth microdilution, MRSA KS1; assay type: cell-based, Staphylococcus aureus
# Summary of the method: as §1
# 33 clinical VRE isolates = assay: MIC against a set of 33 clinical VRE isolates (range, MIC50, TI); assay type: cell-based, Enterococcus faecalis
# Summary of the method: as §1
# [6] = test system: 24 clinical MRSA isolates; assay: MIC against a set of 24 clinical MRSA isolates (range, MIC50, TI); assay type: cell-based, Staphylococcus aureus
# Summary of the method: as §1
# [7] = test system: Clostridium difficile ATJ ribotype 014/20; assay: MIC, plate drop assay, C. difficile ATJ ribotype 014/20; assay type: cell-based
# Summary of the method: (§3)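 Lawns of each strain were made in soft BHI agar (0.4%) supplemented with CaCl2⋅2H2O and MgCl2⋅6H2O. Twofold compound dilutions (10 μL) were spotted, air-dried and incubated overnight at 37°C anaerobically; MIC read as cleared spots, in triplicate with water as negative control.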
# [8] = test system: Clostridium difficile AIU ribotype 027; assay: MIC, plate drop assay, C. difficile AIU ribotype 027; assay type: cell-based
# Summary of the method: as §3
# VE 148 (VanB) = assay: MIC, VanB-type VRE strain VE 148; assay type: cell-based, Enterococcus; conditions: Enterococcus; VE 148, VanB; read-out: MIC
# Summary of the method: as §1
# VE 149 (VanB) = assay: MIC, VanB-type VRE strain VE 149; assay type: cell-based, Enterococcus; conditions: Enterococcus; VE 149, VanB; read-out: MIC
# Summary of the method: as §1
# VE 150 (VanB) = assay: MIC, VanB-type VRE strain VE 150; assay type: cell-based, Enterococcus; conditions: Enterococcus; VE 150, VanB; read-out: MIC
# Summary of the method: as §1
# VE 152 (VanB) = assay: MIC, VanB-type VRE strain VE 152; assay type: cell-based, Enterococcus; conditions: Enterococcus; VE 152, VanB; read-out: MIC
# Summary of the method: as §1
# VE 157 (VanB) = assay: MIC, VanB-type VRE strain VE 157; assay type: cell-based, Enterococcus; conditions: Enterococcus; VE 157, VanB; read-out: MIC
# Summary of the method: as §1
# VE 82 (VanC1) = assay: MIC, VanC1-type VRE strain VE 82; assay type: cell-based, Enterococcus gallinarum; conditions: Enterococcus gallinarum; VE 82, VanC1; read-out: MIC
# Summary of the method: as §1
# MRSA = assay: Minimum bactericidal concentration against MRSA; assay type: cell-based, Staphylococcus aureus
# Procedure: Plates were incubated overnight at 37°C and colony growth was inspected.
structure (smiles),measurement,setting,value
"CCCCCCCCCC(=O)N[C@@H](Cc1c[nH]c2ccccc12)C(=O)N[C@H](CC(N)=O)C(=O)N[C@@H](CC(=O)O)C(=O)N[C@@H]1C(=O)NCC(=O)N[C@@H](CCCN)C(=O)N[C@@H](CC(=O)O)C(=O)N[C@H](C)C(=O)N[C@@H](CC(=O)O)C(=O)NCC(=O)N[C@H](CO)C(=O)N[C@@H]([C@H](C)CC(=O)O)C(=O)N[C@@H](CC(=O)c2ccccc2N)C(=O)O[C@@H]1C [Daptomycin, reference compound]",MIC,"E. faecalis VSE 1; VSE1, Enterococcus faecalis VSE 1 (vancomycin-sensitive), read-out: MIC",> 6.25 µM
same,MIC-fold improvement vs. vancomycin,"E. faecalis VSE 1; VSE 1, ratio of MIC of vancomycin and MIC of analogue",<0.2
same,MIC,"E. faecalis VRE 6; Enterococcus faecalis VRE 6 (vancomycin-resistant), read-out: MIC",6.25 µM
same,MIC-fold improvement vs. vancomycin,"E. faecalis VRE 6; VRE 6, ratio of MIC of vancomycin and MIC of analogue",32
same,MIC,"E. faecalis VRE 53; Enterococcus faecalis VRE 53 (vancomycin-resistant), read-out: MIC",50 µM
same,MIC-fold improvement vs. vancomycin,"E. faecalis VRE 53; VRE 53, ratio of MIC of vancomycin and MIC of analogue",8
same,MIC,"E. faecalis VRE 29; Enterococcus faecalis VRE 29 (vancomycin-resistant), read-out: MIC",50 µM
same,MIC-fold improvement vs. vancomycin,"E. faecalis VRE 29; VRE 29, ratio of MIC of vancomycin and MIC of analogue",8
same,MIC,"E. faecalis VRE 37; Enterococcus faecalis VRE 37 (vancomycin-resistant), read-out: MIC",50 µM
same,MIC-fold improvement vs. vancomycin,"E. faecalis VRE 37; VRE 37, ratio of MIC of vancomycin and MIC of analogue",8
same,IC50,[1],> 250 µM
same,IC50,[2],> 250 µM
same,IC50,[3],> 250 µM
same,IC50,"[4]; average IC50 used for TI in Table S5, >250 entered as 250, read-out: IC50",250 µM
same,IC50,"[4]; average of L1210, CEM and HeLa, read-out: Toxicity (IC50) Average",> 250 µM
same,MIC,"[5]; ATCC6538, Staphylococcus aureus VSSA, read-out: MIC",> 6.25 µM
same,MIC-fold improvement vs. vancomycin,"[5]; VSSA, ratio of MIC of vancomycin and MIC of analogue",<0.1
same,MIC,"S. aureus VISA/HIP5827; Staphylococcus aureus VISA/HIP5827, read-out: MIC",> 12.5 µM
same,MIC-fold improvement vs. vancomycin,"S. aureus VISA/HIP5827; VISA/HIP5827, ratio of MIC of vancomycin and MIC of analogue",<0.5
same,MIC,"S. aureus VRSA; Staphylococcus aureus VRSA, read-out: MIC",12.5 µM
same,MIC-fold improvement vs. vancomycin,"S. aureus VRSA; VRSA, ratio of MIC of vancomycin and MIC of analogue",8
same,MIC-fold improvement vs. vancomycin,"MRSA KS2; MRSA KS2, ratio of MIC of vancomycin and MIC of analogue",0.05
same,MIC,"MRSA KS2; Staphylococcus aureus MRSA KS2, read-out: MIC",12.5 µM
same,MIC,MRSA KS6,> 12.5 µM
same,MIC-fold improvement vs. vancomycin,"MRSA KS89; MRSA KS8 (head; KS89 in title), ratio of MIC of vancomycin and MIC of analogue",0.1
same,MIC,"MRSA KS89; Staphylococcus aureus MRSA KS8 (head; KS89 in title), read-out: MIC",6.25 µM
same,MIC-fold improvement vs. vancomycin,"MRSA KS1; MRSA KS1, ratio of MIC of vancomycin and MIC of analogue",0.05
same,MIC,"MRSA KS1; Staphylococcus aureus MRSA KS1, read-out: MIC",12.5 µM
same,MIC Range,33 clinical VRE isolates; 33 clinical VRE isolates,3.13 to 12.5 µM
same,MIC50,"33 clinical VRE isolates; Enterococcus, median MIC, 33 clinical VRE isolates, read-out: MIC50",6.25 µM
same,TI (IC50/MIC50),"33 clinical VRE isolates; in vitro therapeutic index, VRE",40
same,MIC Range,[6]; 24 clinical MRSA isolates,0.78 to 12.5 µM
same,MIC50,"[6]; Staphylococcus aureus, median MIC, 24 clinical MRSA isolates, read-out: MIC50",0.78 µM
same,TI (IC50/MIC50),"[6]; in vitro therapeutic index, MRSA",321
same,MIC-fold improvement vs. vancomycin,[7]; C. difficile ATJ ribotype 014/20,22
same,MIC,"[7]; Clostridioides difficile, C. difficile ATJ ribotype 014/20, plate drop assay",1.56 µM
same,MIC-fold improvement vs. vancomycin,[8]; C. difficile AIU ribotype 027,29
same,MIC,"[8]; Clostridioides difficile, C. difficile AIU ribotype 027, plate drop assay",1.56 µM
same,MIC,VE 148 (VanB),25 µM
same,MIC,VE 149 (VanB),25 µM
same,MIC,VE 150 (VanB),25 µM
same,MIC,VE 152 (VanB),25 µM
same,MIC,VE 157 (VanB),12.5 µM
same,MIC,VE 82 (VanC1),12.5 µM
same,MBC relative to MIC,MRSA,MBC equaling their MIC values
